Holding throughout (format): cell-based
In assay [1] the target is T1, HER2-A775_G776insV-G776C (NCI-H1781 cells) (Homo sapiens, UniProt P04626, G776C/INS775V).
T1 construct: NCI-H1781 is a HER2 exon20 insertion cell line bearing HER2-A775_G776insV-G776C; endogenous in cells; host or cells: NCI-H1781
The assay can be described thus: Cellular phosphorylation assay, pHER2 (phospho-ErbB2 Tyr1221/1222 AlphaLISA) in NCI-H1781. The note with it: compound incubated for 5 hours. The method, then:
(§1) Besides Ba/F3s, two commercially available cell lines were also used. NCI-H1781 is a HER2 exon20 insertion cell line bearing HER2-A775_G776insV-G776C. A431 bears amplification of the wild-type EGFR gene.
Ba/F3 cells were plated at 50,000 cells/well (40 μL), or NCI-H1781 cells or A431 cells were plated at 12,500 cells/well (40 μL), in a 384-well plate for 1 day. Test compounds (40 nL) were then added in a 3-fold dilution series using the TECAN EV0200 liquid handler and incubated for 5 hours. Only for pEGFR analysis in A431, the cells were briefly stimulated with EGF (30 ng/mL) for 15 minutes. Media were removed using Apricot Designs. Phosphoproteins were analyzed using the phospho-EGFR Tyr1068 AlphaLISA kit (“pEGFR”; PerkinElmer #ALSU-PEGFR-B10K;) phospho-ERK Thr202/Tyr204 AlphaLISA kit (“pERK”; PerkinElmer #ALSU-PERK-A10K) or the phospho-ErbB2 Tyr1221/1222 AlphaLISA kit (“pHER2”; PerkinElmer #ALSU-PEB2-A10K;) according to the manufacturer's instructions. Briefly, cells were lysed with lysis buffer (10 μL) containing protease-inhibitor and phosphatase-inhibitor cocktails. The lysates were transferred into a new optical plate, incubated with the acceptor mix (5 μL) for 1.5-2 hours at room temperature in darkness, and then mixed with the donor mix (5 μL) overnight in darkness. Fluorescence was measured on a plate reader using the appropriate AlphaLISA settings. Half-maximal inhibitory concentration (IC50) was calculated from percent inhibition and inhibitor concentration using four-parameter logistic regression.
HER2 is phosphorylated when activated. Therefore, phospho-HER2 indicates HER2 activity in the cells.
In general terms: In Alpha technology, singlet oxygen from a donor bead excites a nearby acceptor bead.

Assay [2] deals with NCI-H1781 cells (HER2-A775_G776insV-G776C). The assay can be described thus: Cell proliferation assay (CellTiter-Glo), NCI-H1781. The note with it: first inflexion of biphasic curve. Here is the method: as §1
(§2) Ba/F3 cells were plated at 1,000 cells/well (40 μL), or NCI-H1781 or A431 cells were plated at 2,000 cells/well (40 μL), in a 384-well plate for 1 day. Test compounds (40 nL) were then added in a 3-fold dilution series using the TECAN EV0200 liquid handler and incubated for 48 hours (“2 days”), 72 hours (“3 days”), or 48 hours followed by renewal of compound solutions and further incubation for 72 hours (“2 days/3 days”). The 72-hour assay was necessary for NCI-H1781 cells, which are slow-growing, and the resupply of fresh compounds on day 3 obviated the potential confounding effects arising from compound degradation in cell media over 72 hours. Plates were equilibrated at room temperature for 15 minutes followed by addition of 40 μL CellTiter-Glo reagent (Promega). Luminescence was measured on a plate reader. Half-maximal inhibitory concentration (IC50) was calculated from percent inhibition and inhibitor concentration using four-parameter logistic regression. […] In these cases, the regression curve was drawn only for the first inflexion to accurately measure on-target growth inhibitory effect.
(§3) Ba/F3, NCI-H1781, and A431 proliferation is driven by the oncogenes in the same way that cancer cell proliferation in humans is driven by the expression of equivalent oncogenes.
(In general: Cellular ATP, detected with luciferase, serves as a proxy for viable cell number.)

Assay [3] concerns the target Ba/F3 HER2-YVMA cells (HER2-A775_G776insYVMA) (Homo sapiens, UniProt P04626, DUP772-775, cells depend on it). The assay can be described thus: Cell proliferation assay (CellTiter-Glo), Ba/F3 HER2-YVMA. The note with it: read-out: Ba/F3 HER2-YVMA cell proliferation IC50. Here is the method:
The gene encoding HER2-A775_G776insYVMA (“HER2-YVMA”) was synthesized at GeneRay, cloned into the retroviral construct pMSCV-puro (Biovector), and packaged into retroviral particles. The virus was used to infect Ba/F3 cells (RIKEN) at multiplicity of infection=1 or 10 for 1 day. Infected cells were rescued in media (RPMI-1640 with 10% fetal bovine serum and 1% streptomycin and penicillin) supplemented with mouse IL-3 (10 ng/mL) for 2 days, and stable cell lines were selected by IL-3 withdrawal and puromycin (0.8 μg/mL) for 7 days. Monoclones were selected by single-cell dilution in IL-3-free medium containing puromycin ([…]). Transformation of desired genes was confirmed by Sanger sequencing and western blot using the following antibody: HER2 (CST #2242).
as §2, §3

For assay [4], the system named is A431 cells (amplification of the wild-type EGFR gene), phospho-ERK Thr202/Tyr204. The assay can be described thus: Cellular phosphorylation assay, pERK (phospho-ERK Thr202/Tyr204 AlphaLISA) in A431. The note with it: Homo sapiens, A-431, compound incubated for 5 hours. The method, then:
as §1
(§4) Ba/F3 cells were plated at 50,000 cells/well (40 μL), or NCI-H1781 cells or A431 cells were plated at 12,500 cells/well (40 μL), in a 384-well plate for 1 day. Test compounds (40 nL) were then added in a 3-fold dilution series using the TECAN EV0200 liquid handler and incubated for 5 hours. Only for pEGFR analysis in A431, the cells were briefly stimulated with EGF (30 ng/mL) for 15 minutes. Media were removed using Apricot Designs. Phosphoproteins were analyzed using the phospho-EGFR Tyr1068 AlphaLISA kit (“pEGFR”; PerkinElmer #ALSU-PEGFR-B10K;) phospho-ERK Thr202/Tyr204 AlphaLISA kit (“pERK”; PerkinElmer #ALSU-PERK-A10K) or the phospho-ErbB2 Tyr1221/1222 AlphaLISA kit (“pHER2”; PerkinElmer #ALSU-PEB2-A10K;) according to the manufacturer's instructions. Briefly, cells were lysed with lysis buffer (10 μL) containing protease-inhibitor and phosphatase-inhibitor cocktails. The lysates were transferred into a new optical plate, incubated with the acceptor mix (5 μL) for 1.5-2 hours at room temperature in darkness, and then mixed with the donor mix (5 μL) overnight in darkness. Fluorescence was measured on a plate reader using the appropriate AlphaLISA settings. Half-maximal inhibitory concentration (IC50) was calculated from percent inhibition and inhibitor concentration using four-parameter logistic regression. […]

For assay [5], the target named is T2, wild-type EGFR (A431 cells) (Homo sapiens, UniProt P00533).
T2 construct: A431 bears amplification of the wild-type EGFR gene; endogenous in cells; host or cells: A431
T2 sequence (P00533 25-1210): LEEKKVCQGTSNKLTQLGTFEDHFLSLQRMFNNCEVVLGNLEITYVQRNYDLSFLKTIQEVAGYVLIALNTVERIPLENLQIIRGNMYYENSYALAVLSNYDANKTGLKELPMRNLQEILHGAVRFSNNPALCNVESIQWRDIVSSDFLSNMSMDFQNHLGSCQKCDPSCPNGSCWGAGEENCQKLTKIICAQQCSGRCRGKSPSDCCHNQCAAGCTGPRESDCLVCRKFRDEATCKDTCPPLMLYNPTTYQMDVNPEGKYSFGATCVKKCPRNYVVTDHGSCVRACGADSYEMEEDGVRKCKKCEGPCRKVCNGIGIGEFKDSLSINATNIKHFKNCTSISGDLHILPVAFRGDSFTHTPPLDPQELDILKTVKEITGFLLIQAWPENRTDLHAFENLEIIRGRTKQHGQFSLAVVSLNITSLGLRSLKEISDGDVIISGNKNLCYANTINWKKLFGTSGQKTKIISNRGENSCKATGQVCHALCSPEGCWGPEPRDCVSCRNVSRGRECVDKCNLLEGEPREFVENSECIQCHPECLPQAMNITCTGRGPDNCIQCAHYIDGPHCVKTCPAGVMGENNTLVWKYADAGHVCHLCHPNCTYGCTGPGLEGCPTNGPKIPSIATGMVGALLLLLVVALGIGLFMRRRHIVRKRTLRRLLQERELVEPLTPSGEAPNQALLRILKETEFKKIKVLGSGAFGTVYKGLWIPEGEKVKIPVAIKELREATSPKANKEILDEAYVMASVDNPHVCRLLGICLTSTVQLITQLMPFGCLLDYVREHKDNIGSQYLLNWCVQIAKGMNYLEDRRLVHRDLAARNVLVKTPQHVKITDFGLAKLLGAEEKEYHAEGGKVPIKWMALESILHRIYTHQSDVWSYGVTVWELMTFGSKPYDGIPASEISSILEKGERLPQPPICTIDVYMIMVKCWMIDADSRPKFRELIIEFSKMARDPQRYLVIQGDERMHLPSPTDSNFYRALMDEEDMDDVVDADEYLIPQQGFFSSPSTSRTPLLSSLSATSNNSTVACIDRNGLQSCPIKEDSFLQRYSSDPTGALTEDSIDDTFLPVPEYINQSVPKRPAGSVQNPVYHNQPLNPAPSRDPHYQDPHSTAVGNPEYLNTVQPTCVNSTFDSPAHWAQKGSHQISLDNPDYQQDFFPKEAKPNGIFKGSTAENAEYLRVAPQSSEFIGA
Nature of the assay: Cellular phosphorylation assay, pEGFR (phospho-EGFR Tyr1068 AlphaLISA) in A431. The note with it: compound incubated for 5 hours, EGF (30 ng/mL) for 15 minutes. Here is the method:
as §1, §4

Usually IC50 stands for the midpoint of a concentration-inhibition curve. The low end stands for higher potency, the high end for lower potency.

T1 sequence (P04626 with tags, fused parts or gaps INS775V/G776C): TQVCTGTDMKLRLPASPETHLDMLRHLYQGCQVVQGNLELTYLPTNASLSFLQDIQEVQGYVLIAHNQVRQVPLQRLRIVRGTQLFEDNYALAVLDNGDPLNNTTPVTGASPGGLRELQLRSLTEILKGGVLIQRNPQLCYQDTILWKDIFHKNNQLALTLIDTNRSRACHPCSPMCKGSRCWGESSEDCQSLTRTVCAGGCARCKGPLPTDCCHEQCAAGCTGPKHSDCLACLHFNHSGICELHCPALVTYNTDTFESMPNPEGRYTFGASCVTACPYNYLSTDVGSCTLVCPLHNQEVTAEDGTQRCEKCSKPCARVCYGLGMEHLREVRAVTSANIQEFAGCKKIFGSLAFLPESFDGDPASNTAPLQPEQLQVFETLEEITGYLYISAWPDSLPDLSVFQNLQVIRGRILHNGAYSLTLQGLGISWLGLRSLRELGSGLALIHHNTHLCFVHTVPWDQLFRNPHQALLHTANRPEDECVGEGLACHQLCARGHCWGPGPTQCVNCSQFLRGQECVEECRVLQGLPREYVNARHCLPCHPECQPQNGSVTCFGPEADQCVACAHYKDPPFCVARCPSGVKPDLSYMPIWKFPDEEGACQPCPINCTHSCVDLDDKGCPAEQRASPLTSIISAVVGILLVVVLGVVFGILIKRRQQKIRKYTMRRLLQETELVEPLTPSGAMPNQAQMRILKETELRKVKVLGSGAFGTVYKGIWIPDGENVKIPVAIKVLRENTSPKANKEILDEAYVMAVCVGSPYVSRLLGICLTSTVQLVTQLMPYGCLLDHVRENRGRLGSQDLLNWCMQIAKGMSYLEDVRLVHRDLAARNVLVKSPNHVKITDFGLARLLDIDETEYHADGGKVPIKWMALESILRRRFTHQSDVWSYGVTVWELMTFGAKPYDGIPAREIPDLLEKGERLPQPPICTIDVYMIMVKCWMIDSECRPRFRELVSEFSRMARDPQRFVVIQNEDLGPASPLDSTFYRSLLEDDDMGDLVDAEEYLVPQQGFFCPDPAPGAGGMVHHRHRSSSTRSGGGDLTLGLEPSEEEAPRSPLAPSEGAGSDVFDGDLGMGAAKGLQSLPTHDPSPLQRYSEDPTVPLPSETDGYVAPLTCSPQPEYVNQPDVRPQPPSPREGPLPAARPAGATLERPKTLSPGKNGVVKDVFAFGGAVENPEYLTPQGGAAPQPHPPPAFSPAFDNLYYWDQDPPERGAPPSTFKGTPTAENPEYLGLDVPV
Ba/F3 HER2-YVMA cells (HER2-A775_G776insYVMA), sequence (P04626 with tags, fused parts or gaps DUP772-775): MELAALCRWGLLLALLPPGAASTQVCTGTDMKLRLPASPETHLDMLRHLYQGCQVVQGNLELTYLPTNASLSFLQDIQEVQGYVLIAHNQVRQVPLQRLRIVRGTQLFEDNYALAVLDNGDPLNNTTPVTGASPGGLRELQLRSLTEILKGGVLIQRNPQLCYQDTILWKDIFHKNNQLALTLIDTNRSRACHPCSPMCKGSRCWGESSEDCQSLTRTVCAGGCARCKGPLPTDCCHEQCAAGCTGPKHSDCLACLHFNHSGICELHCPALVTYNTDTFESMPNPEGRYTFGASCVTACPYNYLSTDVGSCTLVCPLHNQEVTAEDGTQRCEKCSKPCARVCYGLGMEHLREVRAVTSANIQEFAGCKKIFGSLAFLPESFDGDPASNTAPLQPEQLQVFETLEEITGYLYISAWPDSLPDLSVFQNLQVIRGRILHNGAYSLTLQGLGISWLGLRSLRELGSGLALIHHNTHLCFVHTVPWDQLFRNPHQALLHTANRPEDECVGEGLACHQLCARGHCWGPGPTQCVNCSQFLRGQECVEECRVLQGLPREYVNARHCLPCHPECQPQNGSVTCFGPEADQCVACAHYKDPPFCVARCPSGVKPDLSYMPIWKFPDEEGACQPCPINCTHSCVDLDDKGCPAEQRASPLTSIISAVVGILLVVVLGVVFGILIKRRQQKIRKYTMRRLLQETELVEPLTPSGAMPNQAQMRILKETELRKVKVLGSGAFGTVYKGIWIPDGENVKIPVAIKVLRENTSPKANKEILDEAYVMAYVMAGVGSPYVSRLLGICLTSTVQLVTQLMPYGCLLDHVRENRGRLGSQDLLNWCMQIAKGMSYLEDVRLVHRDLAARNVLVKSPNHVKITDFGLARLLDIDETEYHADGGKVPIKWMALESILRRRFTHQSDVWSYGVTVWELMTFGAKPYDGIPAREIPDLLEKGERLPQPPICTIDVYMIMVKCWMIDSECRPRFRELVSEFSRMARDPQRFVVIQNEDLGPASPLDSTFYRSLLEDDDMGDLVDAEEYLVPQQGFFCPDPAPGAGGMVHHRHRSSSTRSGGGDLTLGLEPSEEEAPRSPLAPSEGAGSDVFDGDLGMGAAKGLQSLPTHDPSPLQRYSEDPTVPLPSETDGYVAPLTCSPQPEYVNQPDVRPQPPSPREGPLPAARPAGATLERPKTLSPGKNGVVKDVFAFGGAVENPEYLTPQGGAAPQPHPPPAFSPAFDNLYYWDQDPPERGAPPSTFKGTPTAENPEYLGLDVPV

Turning to `C=CC(=O)N1CCC=C(c2ccc3ncnc(Nc4ccc(Oc5ccn6ncnc6c5)c(C)c4)c3n2)CC1` [Example 1, 1-(4-[4-[(3-methyl-4-[[1,2,4]triazolo[1,5-a]pyridin-7-yloxy]phenyl)amino]pyrido[3,2-d]pyrimidin-6-yl]-2,3,6,7-tetrahydroazepin-1-yl)prop-2-en-1-one], the IC50 in assay [1] is below 0.1 µM; in assay [2], below 0.1 µM; in assay [4], 0.1 to 0.5 µM; in assay [5], 0.1 to 0.5 µM. Besides, the GI50 in assay [3] was below 0.1 µM.
As for `CC#CC(=O)N1CC=C(c2ccc3ncnc(Nc4ccc(Oc5ccn6ncnc6c5)c(C)c4)c3n2)CC1` [Example 2, 1-(4-(4-((4-([1,2,4]triazolo[1,5-a]pyridin-7-yloxy)-3-methylphenyl)amino)pyrido[3,2-d]pyrimidin-6-yl)-3,6-dihydropyridin-1(2H)-yl)but-2-yn-1-one], the 50% inhibitory concentration (IC50) in assay [1] was below 0.1 µM; in assay [2] it was below 0.1 µM; in assay [4] it was 0.5 to 1 µM; in assay [5], 0.5 to 1 µM. Further, the GI50 in assay [3] was below 0.1 µM.
Turning to `C=CC(=O)N1CC=C(c2ccc3ncnc(Nc4ccc(Oc5ccn6ncnc6c5)c(C)c4F)c3n2)CC1` [Example 5], the IC50 was below 0.1 µM in assay [1], 0.1 to 0.5 µM in assay [2], at least 1 µM in assay [4] and at least 1 µM in assay [5]. In assay [3], the GI50 was below 0.1 µM.
Consider `C=CC(=O)N1CCCN(c2ccc3ncnc(Nc4ccc(Oc5ccn6ncnc6c5)c(C)c4)c3n2)CC1` [Example 14], for which the values for the half-inhibitory concentration (IC50) in assay [1], in assay [4] and in assay [5] were below 0.1 µM, at least 1 µM and at least 1 µM, respectively. In addition, the GI50 in assay [3] was 0.1 to 0.5 µM.
On to `C=CC(=O)N1CC=C(c2ccc3ncnc(Nc4ccc(Oc5ccn6ncnc6c5)c(C)c4)c3c2OC)CC1` [Example 19], for which the 50% inhibitory concentration (IC50) is below 0.1 µM in assay [1] and at least 1 µM in assay [5]. In addition, the GI50 in assay [3] was 0.1 to 0.5 µM.
Taken in the same sequence, the figures for `C=CC(=O)N1CC2(C1)CN(c1ccc3ncnc(Nc4ccc(Oc5ccn6ncnc6c5)c(C)c4)c3n1)C2` [Example 23] were below 0.1 µM, at least 1 µM and 0.5 to 1 µM.
On to `C=CC(=O)N1CC=C(c2ncc3ncnc(Nc4ccc(Oc5ccn6ncnc6c5)c(C)c4F)c3n2)CC1` [Example 37], for which the IC50 in assay [2] is below 0.1 µM; in assay [4] it was at least 1 µM; in assay [5], 0.5 to 1 µM. Moreover, the GI50 in assay [3] is below 0.1 µM.
For the compound `C=CC(=O)N1CCN(c2ncc3ncnc(Nc4ccc(Oc5ccn6ncnc6c5)c(C(F)(F)F)c4F)c3n2)C[C@H]1C` [Example 39], the IC50 is 0.5 to 1 µM in assay [2], at least 1 µM in assay [4] and at least 1 µM in assay [5]. Also, the GI50 in assay [3] lay within 0.1 to 0.5 µM.
As for `C=CC(=O)N1C[C@@H]2CC[C@H]1CN2c1ncc2ncnc(Nc3ccc(Oc4ccn5ncnc5c4)c(C)c3F)c2n1` [Example 41], the IC50 in assay [2], in assay [4] and in assay [5] was below 0.1 µM each time. For the same compound, the GI50 in assay [3] is below 0.1 µM.
In the case of `C=CC(=O)N1CCN(c2ncc3ncnc(Nc4ccc(Oc5ccn6ncnc6c5)c(C)c4F)c3n2)[C@@H](C)C1` [Example 43], the IC50 in assay [2] is below 0.1 µM; in assay [4] it was 0.1 to 0.5 µM; in assay [5] it was 0.1 to 0.5 µM. Moreover, the GI50 in assay [3] was below 0.1 µM.
Take `C=CC(=O)N1C[C@H]2CC[C@@H]1CN2c1ncc2ncnc(Nc3ccc(Oc4ccn5ncnc5c4)c(C)c3F)c2n1` [Example 45]: the IC50 is 0.1 to 0.5 µM in assay [2], at least 1 µM in assay [4] and at least 1 µM in assay [5]. Moreover, the GI50 in assay [3] is below 0.1 µM.
As for `C=CC(=O)N1CCN(c2ncc3ncnc(Nc4cc(C)c(Oc5ccn6ncnc6c5)cc4F)c3n2)C[C@H]1C` [Example 50], the IC50 in assay [1] was below 0.1 µM; in assay [2] it was 0.1 to 0.5 µM; in assay [5], at least 1 µM.
With `C=CC(=O)N1CCN(c2ncc3ncnc(Nc4cc(C)c(Oc5cc(C)n6ncnc6c5)cc4F)c3n2)C[C@H]1C` [Example 51], the IC50 in assay [1] was below 0.1 µM; in assay [4], at least 1 µM; in assay [5], at least 1 µM. Also, in assay [3], the GI50 was below 0.1 µM.
`C=CC(=O)N1CCC(c2ncc3ncnc(Nc4ccc(Oc5ccn6ncnc6c5)c(C)c4F)c3n2)=C[C@H]1C` [Example 55]: the IC50 is below 0.1 µM in assay [1], 0.1 to 0.5 µM in assay [4] and at least 1 µM in assay [5]. For the same compound, the GI50 in assay [3] is below 0.1 µM.
In the case of `C=CC(=O)N1CCC=C(c2ncc3ncnc(Nc4ccc(Oc5ccn6ncnc6c5)c(C)c4F)c3n2)CC1` [Example 56], the concentration for half-maximal inhibition (IC50) in assay [1] is below 0.1 µM; in assay [5], 0.5 to 1 µM. In addition, the GI50 in assay [3] is below 0.1 µM.
Turning to `C=CC(=O)N1CC=C(c2ncc3ncnc(Nc4cc(C)c(Oc5ccn6ncnc6c5)cc4F)c3n2)C[C@@H]1C` [Example 59], the half-maximal inhibitory concentration (IC50) in assay [1] is below 0.1 µM; in assay [5], at least 1 µM. Further, in assay [3], the GI50 was 0.5 to 1 µM.
As for `C=CC(=O)N1CCC(c2ncc3ncnc(Nc4ccc(Oc5ccn6ncnc6c5)c(C(F)F)c4F)c3n2)=C[C@@H]1C` [Example 60], the IC50 in assay [1] was below 0.1 µM; in assay [4], at least 1 µM; in assay [5] it was 0.5 to 1 µM. In addition, the GI50 in assay [3] is below 0.1 µM.
As to `C=CC(=O)N1CCC(c2ncc3ncnc(Nc4ccc(Oc5ccn6ncnc6c5)c(C(F)(F)F)c4F)c3n2)=C[C@@H]1C` [Example 62], the values for the IC50 in assay [1], in assay [4] and in assay [5] were below 0.1 µM, at least 1 µM and at least 1 µM, respectively. The GI50 in assay [3] is below 0.1 µM.
For the compound `C=CC(=O)N1CCN(c2ncc3ncnc(Nc4ncc(Oc5ccn6ncnc6c5)c(C)c4F)c3n2)C[C@H]1C` [Example 63], the 50% inhibitory concentration (IC50) in assay [1] was 0.1 to 0.5 µM; in assay [4] it was at least 1 µM; in assay [5] it was at least 1 µM. The GI50 in assay [3] is 0.5 to 1 µM.
As to `C=CC(=O)N1CCN(c2ccc3ncnc(Nc4ncc(Oc5ccn6ncnc6c5)c(C)c4F)c3c2F)C[C@H]1C` [Example 64], the IC50 is below 0.1 µM in assay [1], at least 1 µM in assay [4] and at least 1 µM in assay [5]. Besides, the GI50 in assay [3] was 0.1 to 0.5 µM.

The record behind these values is patent US12037346B2, “Amino-substituted heteroaryls for treating cancers with EGFR mutations” (Nuvalent, Inc., priority 2021, dated 2024).
